Measurements from patent US9303088B2, “Detecting and treating breast cancer resistance to EGFR inhibitors” (The Regents of the University of California, priority 2009, dated 2016).

How the values were obtained:
HMT3522 T4-2 cells = experiment: Phenotypic reversion of malignant T4-2 cells cultured in 3D lrECM with signaling inhibitors; assay type: cell-based, human; settings: for induction of phenotypically normal acinus-like structures: T4-2 cells in 3D lrECM; for phenotypic reversion of control T4-2 cells: vector control T4-2 cells (FIG. 17C)
Source text: The retroviral cDNA library from malignant T4-2 cells was re-introduced into T4-2 cells. Retrovirus transduced T4-2 cells were subsequently grown on 3D1rECM with one of the small molecule inhibitors, AG1478 (EGFR inhibitor), PD98059 (mitogen-activated protein kinase inhibitor), or LY294002 (PI3K inhibitor), […] […] After the second round of screening, the cDNA inserts were recovered from genomic DNA by PCR using primers to the flanking sequences of the retroviral cloning vector. Genomic DNA was isolated from selected clones grown on the monolayer.
Microscopic visual fields of FIG. 3 show non-malignant HMT3522 S1 cells form polarized acinar structures (FIG. 3A) resembling normally differentiated acinus in vivo, whereas malignant T4-2 cells form disorganized colonies constantly growing on 3D 1rECM (FIG. 3B).
(§1) FIG. 4B is a western blot of extracted cell lysates blotted with antibodies against EGFR, β-integrin, phosphorylated EGFR, and E-cadherin, which was used as a loading control.

[1] = system: FAM83A overexpressing T4-2 cells; experiment: Phenotypic reversion of FAM83A-overexpressing T4-2 cells in 3D lrECM with inhibitors; assay type: cell-based, human; settings: for phenotypic reversion of full-length FAM83A overexpressing T4-2 cells: 3D lrECM (FIG. 5B)
[2] = system: Vector control T4-2 cells; experiment: Lapatinib treatment of vector control T4-2 xenografts in mice; assay type: in vivo, BALB/c-nude mice
Procedure: (§2) Animal experiments were performed under federal guidelines and approved by Institutional Animal Welfare and Research Committee at LBN. Exponentially growing T4-2 cells or MDA-MB-468 cells were suspended at the density of 5×10^6 or 10×10^6, respectively, in 100 μl medium containing DMEM/F12 medium (50%) and Matrigel (50%). Cell suspension was subcutaneously injected into the rear flank of 6-8 wk old athymic female BALB/c-nude mice (nu/nu) (Charles River Laboratories) (n=8 per group). Tumor volumes were measured every other day. ANOVA 2-way analysis with Bonferroni post test was used to determine p-value. At the end of experiments, mice were sacrificed and subjected to pathological examinations.
(§3) The ability of FAM83A to confer cancer cell resistance to EGFR inhibitor in vivo was determined Vector control or FAM83A-overexpressing T4-2 cells were xenografted into mice, which were orally administered lapatinib by oral gavage at 30 mg/kg or 100 mg/kg twice daily for 3 weeks. […] Then, mice were randomized into vehicle (0.5% hydroxypropylmethylcellulose with 0.1% Tween 80 in water; n=8) and experimental treatment groups (n=8) to receive oral gavage of lapatinib at 30 mg/kg or 100 mg/kg twice daily for 3 weeks.

[3] = system: FAM83A-overexpressing T4-2 cells; experiment: Lapatinib treatment of FAM83A-overexpressing T4-2 xenografts in mice; assay type: in vivo, BALB/c-nude mice
Procedure: as §2, §3

EGFR = experiment: Western blot of EGFR, phosphorylated EGFR and β1-integrin in AG1478-treated T4-2 cells; assay type: cell-based, human; settings: 3D lrECM, western blot (FIG. 4B)
Source text: as §1

FAM83A [4] = experiment: RT-PCR and western blot of endogenous FAM83A in AG1478-treated T4-2 cells; assay type: cell-based, human
Procedure: The expression level of endogenous FA[…] in non-reverted and reverted T4-2 cells was analyzed by RT-PCR and western blot with antibody against endogenous FA[…]. […] RNA levels in T4-2 cells cultured in both 2D monolayer and 3D 1rECM treated with AG1478 or vehicle control DMSO for 4 days. FIG. 7B is a bar graph quantification of the results from FIG. 7A. […] RNA levels in S1 cells growing in 2D or 3D cultures. FIG. 7C is a western blot comparison of FA[…] protein levels in S1 and T4-2 cells growing in 2D or 3D cultures in the presence or absence of AG1478.

FAM83A [5] = experiment: FAM83A protein knock-down by siRNA in T4-2 cells (western blot and immunofluorescence with FAM83A polyclonal antibody); assay type: cell-based, human; settings: T4-2 lysates, western blot vs scrambled control (FIG. 14B)
Procedure: The specificity of FAM83A polyclonal antibody was tested by performing western blot and immunofluorescence analysis in two different sets of FAM83A-specific siRNA-treated T4-2 cells (siRNA#1, SEQ ID NO:1; and siRNA#2, SEQ ID NO:2) using the FAM83A polyclonal antibody.

MDA-MB468 cells = experiment: Xenograft growth of FAM83A shRNA-treated MDA-MB468 cells in nude mice; assay type: in vivo, BALB/c-nude mice; settings: fraction of the control cells (FIG. 17B)
Procedure: as §2
To confirm this observation for cells with stable FAM83A-depletion and a different genetic background, control or FAM83A shRNA-treated MDA-MB468 cells were subcutaneously injected into the rear flank of nude mice and monitored for their growth. For FAM83A shRNA production, a double-stranded DNA oligonucleotide was generated from the following sequences: sense, 5′-[…]-3′ (SEQ ID NO:7); antisense, 5′-[…]-3′ (SEQ ID NO:8) (target sequence underlined; BamH1/EcoR1 cohesive ends italicized). Both oligonucleotides were annealed and ligated into BamH1/EcoR1 site of pGreen puro lentival vector (System Biosciences).

[6] = lapatinib 30 mg/kg, hematoxylin and eosin (FIG. 18B)
[7] = lapatinib oral gavage twice daily for 3 weeks, 30 mg/kg (FIG. 17D)

Molecule: COc1cccc(-c2cc(=O)c3ccccc3o2)c1N [PD98059]
- induction of phenotypically normal acinus-like structures (HMT3522 T4-2 cells; 20 μM PD98059): phenotypically normal acinus-like structures were induced
- phenotypic reversion of full-length FAM83A overexpressing T4-2 cells [1]: undergo phenotypic reversion

Molecule: COc1cc2ncnc(Nc3ccc(F)c(Cl)c3)c2cc1OCCCN1CCOCC1 [gefitinib]
- phenotypic reversion of control T4-2 cells (HMT3522 T4-2 cells): reverted

Molecule: CS(=O)(=O)CCNCc1ccc(-c2ccc3ncnc(Nc4ccc(OCc5cccc(F)c5)c(Cl)c4)c3c2)o1 [lapatinib]
- phenotypic reversion of control T4-2 cells (HMT3522 T4-2 cells): reverted
- structure of FAM83A-overexpressing T4-2 cells in presence of EGFR inhibitor ([1]; FIG. 17C): maintained disorganized structures
- dose dependence of tumor inhibitory action on control cells ([2]; 30 mg/kg or 100 mg/kg oral gavage twice daily (FIG. 18A)): independent of the dose above 30 mg/kg
- pathological examination of sectioned control tumors [2, 6]: well-circumscribed and distinctly separated from the stromal regions
- growth of control tumors [2, 7]: significantly inhibited
- pathological examination of sectioned FAM83A-overexpressing tumors [3, 6]: had been invading the stromal regions
- size of lapatinib-treated FAM83A-overexpressing tumors relative to controls ([3]; lapatinib oral gavage twice daily for 3 weeks (FIG. 17D)): 5 times
- growth of FAM83A-overexpressing tumors [3, 7]: not affected

Molecule: AG1478
- morphology of T4-2 cells treated with AG1478 (HMT3522 T4-2 cells; 3D lrECM, 10 days, different concentrations (FIG. 4A)): form growth arrested acinus-like structures
- induction of phenotypically normal acinus-like structures (HMT3522 T4-2 cells; 100 nM AG1478): phenotypically normal acinus-like structures were induced
- phenotypic reversion of full-length FAM83A overexpressing T4-2 cells [1]: not
- EGFR protein level (EGFR): decreased levels
- phosphorylated EGFR level (EGFR): lower levels
- β1-integrin protein level (EGFR): decreased levels
- FAM83A mRNA expression (FAM83A [4]; AG1478 4 days, RT-PCR): decreased
- FAM83A protein expression (FAM83A [4]; AG1478, western blot): decreased

B1: siRNA#1: one of two different sets of FAM83A-specific siRNA; printed as SEQ ID NO:1 (nucleic acid)
chain: ATGAGCCGGTCAAGGCACCTGGGCAAAATCCGGAAGCGTCTGGAAGATGTCAAGAGCCAGTGGGTCCGGCCAGCCAGGGCTGACTTTAGTGACAACGAGAGTGCCCGGCTGGCCACGGACGCCCTCTTGGATGGGGGTTCTGAAGCCTACTGGCGGGTGCTCAGCCAGGAAGGCGAGGTGGACTTCTTGTCCTCGGTGGAGGCCCAGTACATCCAGGCCCAGGCCAGGGAGCCCCCGTGTCCCCCAGACACCCTGGGAGGGGCGGAAGCAGGCCCTAAGGGACTGGACTCCAGCTCCCTACAGTCCGGCACCTACTTCCCTGTGGCCTCAGAGGGCAGCGAGCCGGCCCTACTGCACAGCTGGGCCTCAGCTGAGAAGCCCTACCTGAAGGAAAAATCCAGCGCCACTGTGTACTTCCAGACCGTCAAGCACAACAACATCAGAGACCTCGTCCGCCGCTGCATCACCCGGACTAGCCAGGTCCTGGTCATCCTGATGGATGTGTTCACGGATGTGGAGATCTTCTGTGACATTCTAGAGGCAGCCAACAAGCGTGGGGTGTTCGTTTGTGTGCTCCTGGACCAGGGAGGTGTGAAGCTCTTCCAGGAGATGTGTGACAAAGTCCAGATCTCTGACAGTCACCTCAAGAACATTTCCATCCGGAGTGTGGAAGGAGAGATATACTGTGCCAAGTCAGGCAGGAAATTCGCTGGCCAAATCCGGGAGAAGTTCATCATCTCGGACTGGAGATTTGTCCTGTCTGGATCTTACAGCTTCACCTGGCTCTGCGGACACGTGCACCGGAACATCCTCTCCAAGTTCACAGGCCAGGCGGTGGAGCTGTTTGACGAGGAGTTCCGCCACCTCTACGCCTCCTCCAAGCCTGTGATGGGCCTGAAGTCCCCGCGGCTGGTCGCCCCCGTCCCGCCCGGAGCAGCCCCGGCCAATGGCCGCCTTAGCAGCAGCAGTGGCTCCGCCAGTGACCGCACGTCCTCCAACCCCTTCAGCGGCCGCTCGGCAGGCAGCCACCCCGGTACCCGAAGTGTGTCCGCGTCTTCAGGGCCCTGTAGCCCCGCGGCCCCACACCCGCCTCCACCGCCCCGGTTCCAGCCCCACCAAGGCCCTTGGGGAGCCCCGAGTCCCCAGGCCCACCTCTCCCCGCGGCCCCACGACGGCCCGCCCGCCGCTGTCTACAGCAACCTGGGGGCCTACAGGCCCACGCGGCTGCAGCTGGAGCAGCTGGGCCTGGTGCCGAGGCTGACTCCAACCTGGAGGCCCTTCCTGCAGGCCTCCCCTCACTTCTGA
modifications: Homo sapien
- 23 kDa FAM83A band (FAM83A [5]): reduced
- 99 kDa FAM83A band (FAM83A [5]): reduced

B2: FAM83A shRNA: shRNA from double-stranded DNA oligonucleotide (SEQ ID NO:7 and 8) ligated into pGreen puro lentiviral vector (nucleic acid)
sense: GATCCGTGTGGAAGGAGAGATATACTTCCTGTCAGATATATCTCTCCTTCCACACTTTTTG
antisense: AATTCAAAAAGTGTGGAAGGAGAGATATATCTGACAGGAAGTATATCTCTCCTTCCACACG
- tumor growth relative to control cells (MDA-MB468 cells): ¼
